Reference: PubChem BioAssay AID274 (DTP/NCI, 2004)
Where “and” joins values, the source holds several entries; their conditions need not be identical. Equal values may be shown once. Inconclusive results and toxic doses are left out.

Tested on: BDF1 mice, Lewis lung carcinoma iv, survival T/C
Assay: NCI In Vivo Anticancer Drug Screen. Data for tumor model Lewis Lung Carcinoma (intravenous) in B6D2F1 (BDF1) mice
Settings: endpoint: median survival time, higher = longer survival
Description: The antitumor activity of compounds was measured in mice bearing transplantable tumors. Survival or tumor size were measured and the results are expressed as the measurement made in the treated group (T) divided by the measurement made in the vehicle treated control group (C). The tumor model used in this assay is Lewis Lung Carcinoma (intravenous) in B6D2F1 (BDF1) mice

For CC1CCC(NC(=O)N(CCCl)N=O)CC1 (stereo not given), the T/C (dose: 5.0 mg/kg/injection, schedule: Q01DX001 (ip), vehicle: saline) was 100 % of control, the T/C (dose: 10.0 mg/kg/injection, schedule: Q01DX001 (ip), vehicle: saline) was 100 % of control and the T/C (dose: 24.0 mg/kg/injection, schedule: Q01DX001 (ip), vehicle: saline with Tween-80) was 156 % of control. The T/C (dose: 24.0 mg/kg/injection, schedule: Q06DX002 (ip), vehicle: saline with Tween-80) was 176 % of control and 270 % of control, the T/C (dose: 30.0 mg/kg/injection, schedule: Q01DX001 (ip), vehicle: saline) was 94 % of control and 103 % of control and the T/C (dose: 30.0 mg/kg/injection, schedule: Q06DX002 (ip), vehicle: saline with Tween-80) was 220 % of control and 260 % of control. The T/C (dose: 36.0 mg/kg/injection, schedule: Q01DX001 (ip), vehicle: saline with Tween-80) was 162 % of control and 185 % of control and 205 % of control and the T/C (dose: 40.0 mg/kg/injection, schedule: Q01DX001 (ip), vehicle: saline) was 103 % of control.
With CN(N=O)C(=O)N[C@@H](C=O)[C@@H](O)[C@H](O)[C@H](O)CO the T/C (dose: 16.0 mg/kg/injection, schedule: Q01DX009 (ip), vehicle: other) was 109 % of control, the T/C (dose: 25.0 mg/kg/injection, schedule: Q01DX009 (ip), vehicle: citric acid) was 110 % of control and the T/C (dose: 32.0 mg/kg/injection, schedule: Q01DX009 (ip), vehicle: other) was 98 % of control. For the same compound, the T/C (dose: 64.0 mg/kg/injection, schedule: Q01DX009 (ip), vehicle: other) was 112 % of control, the T/C (dose: 100.0 mg/kg/injection, schedule: Q01DX009 (ip), vehicle: citric acid) was 124 % of control and the T/C (dose: 128.0 mg/kg/injection, schedule: Q01DX009 (ip), vehicle: other) was 109 % of control.
CC(C)=CC(=O)OC1C2C(C)=CC(=O)C(O)C2(C)C2C3(O)OCC24C(CC(=O)OC14)C(C)C3O (stereo not given) was tested, and the T/C (dose: 0.25 mg/kg/injection, schedule: Q01DX009 (ip), vehicle: distilled water + Tween-80) was 92 % of control, the T/C (dose: 0.5 mg/kg/injection, schedule: Q01DX009 (ip), vehicle: distilled water + Tween-80) was 90 % of control and the T/C (dose: 1.0 mg/kg/injection, schedule: Q01DX009 (ip), vehicle: distilled water + Tween-80) was 106 % of control. For the same compound, the T/C (dose: 2.0 mg/kg/injection, schedule: Q01DX009 (ip), vehicle: distilled water + Tween-80) was 103 % of control.
For c1cn[nH]c1, the T/C (dose: 25.0 mg/kg/injection, schedule: Q01DX009 (ip), vehicle: saline) was 121 % of control and the T/C (dose: 50.0 mg/kg/injection, schedule: Q01DX009 (ip), vehicle: saline) was 110 % of control.
COCC(O)Cn1ccnc1[N+](=O)[O-] (stereo not given) was tested, and the T/C (dose: 12.5 mg/kg/injection, schedule: Q01DX009 (ip), vehicle: water) was 96 % of control, the T/C (dose: 25.0 mg/kg/injection, schedule: Q01DX009 (ip), vehicle: water) was 92 % of control and the T/C (dose: 50.0 mg/kg/injection, schedule: Q01DX009 (ip), vehicle: water) was 96 % of control. For the same compound, the T/C (dose: 100.0 mg/kg/injection, schedule: Q01DX009 (ip), vehicle: water) was 100 % of control, the T/C (dose: 200.0 mg/kg/injection, schedule: Q01DX009 (ip), vehicle: water) was 92 % of control and the T/C (dose: 400.0 mg/kg/injection, schedule: Q01DX009 (ip), vehicle: water) was 96 % of control.
In the case of CC1CCC2(OC1)OC1CC3C4CCC5CC(O)CCC5(C)C4CCC3(C)C1C2C (stereo not given), the T/C (dose: 20.0 mg/kg/injection, schedule: Q01DX009 (ip), vehicle: Klucel (hydroxypropylcellulose) (HPC)) was 91 % of control.
COC(=O)Nc1cccc(-c2nc3ccc(NC(=O)OC)cc3c(=O)n2-c2ccccc2)c1 was tested, and the T/C (dose: 8.0 mg/kg/injection, schedule: Q01DX009 (ip), vehicle: Klucel (hydroxypropylcellulose) (HPC)) was 95 % of control, the T/C (dose: 8.0 mg/kg/injection, schedule: Q01DX009 (ip), vehicle: saline) was 92 % of control and the T/C (dose: 16.0 mg/kg/injection, schedule: Q01DX009 (ip), vehicle: Klucel (hydroxypropylcellulose) (HPC)) was 92 % of control. The T/C (dose: 16.0 mg/kg/injection, schedule: Q01DX009 (ip), vehicle: saline) was 97 % of control, the T/C (dose: 32.0 mg/kg/injection, schedule: Q01DX009 (ip), vehicle: Klucel (hydroxypropylcellulose) (HPC)) was 99 % of control and the T/C (dose: 32.0 mg/kg/injection, schedule: Q01DX009 (ip), vehicle: saline) was 109 % of control. For the same compound, the T/C (dose: 64.0 mg/kg/injection, schedule: Q01DX009 (ip), vehicle: Klucel (hydroxypropylcellulose) (HPC)) was 109 % of control, the T/C (dose: 64.0 mg/kg/injection, schedule: Q01DX009 (ip), vehicle: saline) was 108 % of control and the T/C (dose: 128.0 mg/kg/injection, schedule: Q01DX009 (ip), vehicle: saline) was 115 % of control.
O=C1C(Cl)=C(Cl)C(=O)C2=C1C1c3ccccc3C2c2ccccc21 was tested, and the T/C (dose: 12.5 mg/kg/injection, schedule: Q01DX009 (ip), vehicle: saline with Tween-80) was 104 % of control, the T/C (dose: 25.0 mg/kg/injection, schedule: Q01DX009 (ip), vehicle: saline with Tween-80) was 103 % of control and the T/C (dose: 50.0 mg/kg/injection, schedule: Q01DX009 (ip), vehicle: saline with Tween-80) was 103 % of control.
CC1=C(/C=C/C(C)=C/C=C/C(C)=C/CO)C(C)(C)CCC1 was tested, and the T/C (dose: 4.0 mg/kg/injection, schedule: Q01DX005 (ip), vehicle: saline with Tween-80) was 95 % of control, the T/C (dose: 8.0 mg/kg/injection, schedule: Q01DX005 (ip), vehicle: saline with Tween-80) was 95 % of control and the T/C (dose: 16.0 mg/kg/injection, schedule: Q01DX005 (ip), vehicle: saline with Tween-80) was 95 % of control. The T/C (dose: 32.0 mg/kg/injection, schedule: Q01DX005 (ip), vehicle: saline with Tween-80) was 102 % of control, the T/C (dose: 64.0 mg/kg/injection, schedule: Q01DX005 (ip), vehicle: saline with Tween-80) was 102 % of control and the T/C (dose: 128.0 mg/kg/injection, schedule: Q01DX005 (ip), vehicle: saline with Tween-80) was 98 % of control.
